In patent publication US20160361298A1, “METHODS AND COMPOSITIONS FOR TREATING CANCER” (Globavir BioSciences, Inc., priority 2015, published 2016):
Where two headings read alike, the source gives them in different places.

Tests used:
Recombinant TDO = molecular target: T1, Recombinant TDO (Homo sapiens, UniProt P48775); assay: TDO Inhibition Assay (recombinant enzyme, absorbance at 321 nm); format: biochemical; settings: for activity at 10 µM: read-out: TDO Inhibition Assay Screening (Activity, %) 10 μM; for activity at 1 µM: 1 μM test compound, read-out: TDO Inhibition Assay Screening (Activity, %) 1 μM
T1 construct: Recombinant TDO or IDO was diluted to 16 ng/uL and 50 uL loaded into wells of a 96-well plate
T1 sequence (P48775 whole entry): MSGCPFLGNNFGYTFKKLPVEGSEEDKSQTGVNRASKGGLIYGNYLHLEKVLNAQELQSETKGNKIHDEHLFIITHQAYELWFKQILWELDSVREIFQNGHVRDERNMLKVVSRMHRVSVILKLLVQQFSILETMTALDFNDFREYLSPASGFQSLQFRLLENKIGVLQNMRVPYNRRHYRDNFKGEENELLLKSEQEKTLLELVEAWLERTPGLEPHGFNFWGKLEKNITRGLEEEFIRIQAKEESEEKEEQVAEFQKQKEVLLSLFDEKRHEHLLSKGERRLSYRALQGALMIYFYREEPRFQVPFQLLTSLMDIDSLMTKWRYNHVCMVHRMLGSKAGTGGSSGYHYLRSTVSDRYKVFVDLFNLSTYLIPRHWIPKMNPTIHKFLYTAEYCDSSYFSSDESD
Protocol: Inhibition of IDO by TDO/IDO test inhibitors was assessed in vitro. A substrate mixture was prepared by mixing equal volumes of 80 mM ascorbic acid diluted in 0.405 M Tris, pH 8.0 and a mixture of […] L-tryptophan, 9,000 units/mL catalase and 40 uM methyene blue. Recombinant TDO or IDO was diluted to 16 ng/uL and 50 uL loaded into wells of a 96-well plate. The reaction was started by the addition of 50 uL substrate mixture. The plate was read in kinetic mode at 321 nm for 5 minutes. The rate of increase of absorbance measured in the absence of a TDO/IDO inhibitor is taken as the maximum rate of enzymatic activity.

Recombinant IDO = molecular target: T2, Recombinant IDO (Homo sapiens, UniProt P14902); assay: IDO Inhibition Assay (recombinant enzyme, absorbance at 321 nm); format: biochemical; settings: for activity at 10 µM: read-out: IDO Inhibition Assay Screening (Activity, %) 10 μM; for activity at 1 µM: 1 μM test compound, read-out: IDO Inhibition Assay Screening (Activity, %) 1 μM
T2 construct: Recombinant TDO or IDO was diluted to 16 ng/uL and 50 uL loaded into wells of a 96-well plate
T2 sequence (P14902 whole entry): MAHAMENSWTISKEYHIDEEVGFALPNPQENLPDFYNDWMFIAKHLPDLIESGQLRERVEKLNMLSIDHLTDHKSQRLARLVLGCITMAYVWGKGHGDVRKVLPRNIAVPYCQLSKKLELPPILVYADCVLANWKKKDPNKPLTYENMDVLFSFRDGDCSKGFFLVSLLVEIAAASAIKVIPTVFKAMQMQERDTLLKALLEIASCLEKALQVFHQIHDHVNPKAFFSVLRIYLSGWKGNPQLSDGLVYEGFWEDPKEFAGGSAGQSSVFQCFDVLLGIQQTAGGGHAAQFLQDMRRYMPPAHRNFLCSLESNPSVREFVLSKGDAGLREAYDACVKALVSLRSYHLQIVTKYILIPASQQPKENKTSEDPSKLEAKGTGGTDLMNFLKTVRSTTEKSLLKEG
Protocol: Inhibition of IDO by TDO/IDO test inhibitors was assessed in vitro. […] Recombinant TDO or IDO was diluted to 16 ng/uL and 50 uL loaded into wells of a 96-well plate. The reaction was started by the addition of 50 uL substrate mixture. […] The rate of increase of absorbance measured in the absence of a TDO/IDO inhibitor is taken as the maximum rate of enzymatic activity.

[1] = tested on: HuT78 (human CTCL cell line); assay: Cancer cell cytotoxicity, CellTiter-Glo Luminescent Cell Viability Assay; settings: HuT78, read-out: IC50 (μM) cancer cell cytotoxicity
Protocol: (§1) TDO/IDO test compounds were incubated with various cancer cell lines to determine the effect of the test compounds on cancer cell death. The CellTiter-Glo Luminescent Cell Viability Assay was used to determine cell cytotoxicity by determining the number of viable cells in culture based on quantitation of ATP, which signals the presence of metabolically active cells.

[2] = tested on: U87MG (human glioblastoma); assay: as above; settings: U-87 MG, read-out: IC50 (μM) cancer cell cytotoxicity
Protocol: as §1

[3] = tested on: SCC4 (human squamous cell carcinoma); assay: as above; settings: SCC-4, read-out: IC50 (μM) cancer cell cytotoxicity
Protocol: as §1

[4] = tested on: HT29 (human colorectal adenocarcinoma); assay: as above; settings: HT-29, read-out: IC50 (μM) cancer cell cytotoxicity
Protocol: as §1

CT26 (murine colon) = assay: as above; settings: Mus musculus, CT26, read-out: IC50 (μM) cancer cell cytotoxicity
Protocol: as §1

[5] = tested on: Pano2 (murine pancreatic); assay: as above; settings: Mus musculus, PanO2, read-out: IC50 (μM) cancer cell cytotoxicity
Protocol: as §1

GL261 (murine glioma) = assay: as above; settings: Mus musculus, GL261, read-out: IC50 (μM) cancer cell cytotoxicity
Protocol: as §1

[6] = read-out: TDO Inhibition Assay Dose Resp. (IC50)
[7] = 10 μM test compound, remaining enzyme activity
[8] = read-out: IDO Inhibition Assay Dose Resp. (IC50)

SMILES	IC50 (Recombinant TDO; [6]) [µM]	activity at 10 µM (Recombinant TDO) [%]	activity at 10 µM (Recombinant IDO) [%]	IC50 [1] [µM]	IC50 [2] [µM]	IC50 [3] [µM]	IC50 [4] [µM]	IC50 (CT26 (murine colon)) [µM]	IC50 [5] [µM]	IC50 (GL261 (murine glioma)) [µM]	activity at 1 µM (Recombinant TDO; remaining enzyme activity) [%]	activity at 10 µM (Recombinant TDO; [7]) [%]	IC50 (Recombinant IDO) [µM]	activity at 1 µM (Recombinant IDO; remaining enzyme activity) [%]	activity at 10 µM (Recombinant IDO; [7]) [%]	IC50 (Recombinant TDO) [µM]	IC50 (Recombinant IDO; [8]) [µM]
C=C(c1ccccc1OCc1cccc(Cl)c1)n1ccnc1 [Cloconazole]	0.532	5	76	19.4	26.7	46.2	10.7	8.06	9.61	20.3	–	–	–	–	–	–	–
Clc1ccc(C(Cn2ccnc2)OCc2csc3c(Cl)cccc23)c(Cl)c1 (stereo not shown) [Sertaconazole]	4.07	–	–	17.7	13.9	–	11.9	10.9	16.1	30.1	74	15	8.25	63	37	–	–
O=C(O)c1ccc(-n2nc(-c3ccccc3O)nc2-c2ccccc2O)cc1 [Deferasirox]	–	–	–	–	–	–	–	–	–	–	107	69	–	90	85	–	–
Clc1ccc(C(Cn2ccnc2)OCc2c(Cl)cccc2Cl)c(Cl)c1 (stereo not shown) [Isoconazole]	–	–	–	15.7	63.9	83.8	14.8	14.8	12.6	15.6	58	17	14.6	76	53	4.12	–
O=C(Nc1ccc([N+](=O)[O-])cc1Cl)c1cc(Cl)ccc1O [Niclosamide]	–	–	–	–	–	–	–	–	–	–	82	62	–	84	75	–	–
Clc1ccc(C(Cn2ccnc2)OCc2ccsc2Cl)c(Cl)c1 (stereo not shown) [Tioconazole]	4.16	–	–	12.1	26.1	28.2	18.2	14	22.2	27	83	28	–	76	47	–	9.33
NS(=O)(=O)NCCNc1nonc1C(=NO)Nc1ccc(F)c(Br)c1 [INCB024360]	–	–	–	72.5	–	–	53.7	69.9	53.5	48.9	–	–	–	–	–	–	–
Clc1ccc(COC(Cn2ccnc2)c2ccc(Cl)cc2Cl)cc1 (stereo not shown) [Econazole]	5.35	–	–	–	–	–	–	–	–	–	80	20	4.91	71	28	–	–
CCC(C)n1ncn(-c2ccc(N3CCN(c4ccc(OCC5COC(Cn6cncn6)(c6ccc(Cl)cc6Cl)O5)cc4)CC3)cc2)c1=O (stereo not shown) [Itraconazole]	47	–	–	–	–	–	–	–	–	–	93	82	–	72	56	–	17.4
Clc1ccc(C(Cn2ccnc2)OCc2ccc(Sc3ccccc3)cc2)c(Cl)c1 (stereo not shown) [Fenticonazole]	2.73	–	–	9.16	15.6	78.8	13.9	7.6	16.1	15.2	89	-34	–	85	56	–	–
Clc1ccc(COC(Cn2ccnc2)c2ccc(Cl)cc2Cl)c(Cl)c1 (stereo not shown) [Miconazole]	3.7	–	–	–	–	–	–	–	–	–	74	16	4.69	67	27	–	–
CC1=NN(c2ccc(C)c(C)c2)C(=O)/C1=N\Nc1cccc(-c2cccc(C(=O)O)c2)c1O [Eltrombopag]	1.05	–	–	–	–	–	–	–	–	–	–	5	–	–	83	–	–
Clc1cccc(C(c2ccc3[nH]cnc3c2)n2ccnc2)c1 (stereo not shown) [Liarozole]	9.33	–	–	–	–	–	–	–	–	–	89	43	–	99	88	–	63.4
